Source: patent publication US20240358624A1, “APPLICATION TYPE BODY-CORRECTING-FILM FORMING AGENT” (SHISEIDO COMPANY, LTD., priority 2021, published 2024)
Peptide text beside a SMILES is read from it.

Assay: Permeability test with stationary Franz diffusion cell and human skin
Format: in vitro ADME
Experimental: The intramembrane concentrations of various water-soluble agents in the epidermis and dermis after 24 hours were measured using the following conditions and methods with a stationary Franz diffusion cell and human skin.
• Cell type: Stationary Franz diffusion cell (manufactured by Biocom Systems, Inc.) • Receptor well volume: 3.3 mL • Target skin area: 0.55 cm^2 • Membrane type: Human skin having a thickness of 300 μm (acquired from New York Firefighter's Skin Bank, Science Care, Allosource, or BioIVT) • Number of skin donors: 1 individual • Details of donors: Gender: male or female; age: from 30 to 70 years old; site: thigh or upper torso • Receptor fluid: Phosphate buffered saline (PBS) containing 0.01% w/w NaN3 (preservative)
The concentrations of water-soluble agents were measured in the receptor chamber of the diffusion cell at different time points. At the end of the diffusion test, the skin was sequentially tape-stripped and divided into epidermal and dermal layers. Concentrates of various water-soluble agents in each of the grouped tape strips and epidermal and dermal tissues were extracted using an extraction solvent and analyzed on an Agilent G6120 HPLC system equipped with an LC-MS detector.
The obtained skin was cryopreserved in a freezer at −20° C. until the morning of the test. Before use, the skin was removed from the freezer and completely thawed at room temperature. Only visually intact areas of the skin were used during testing.
The receptor fluid was prepared at the appropriate pH and degassed by filtering the receptor fluid through a ZapCap (registered trademark) CR 0.2 μm membrane while vacuuming.
The diffusion cell was assembled according to (1) to (10) below. […]
Once the cell was assembled and the skin was hydrated for 20 minutes, a tritiated water test was performed to assess the barrier integrity of each skin piece before applying the test sample to the skin. Skin barrier integrity was evaluated according to (a) to (i) below. […]

SMILES: NC(=O)c1cccnc1 [nicotinic acid amide, reference compound]
- Skin permeability (dosage form of the second agent is a water-in-oil emulsion composition): skin permeability is further improved

SMILES: COc1ccc(C(=O)[O-])c(O)c1.[K+] [potassium 4-methoxysalicylate]
- Distribution in the skin when it permeates the skin (from body-correcting-film forming agent, Table 1): tends to remain in the epidermis

SMILES: NCC(=O)NCC(=O)O [glycylglycine] (H-Gly-Gly-OH)
- Skin permeability (dosage form of the second agent is an oil-in-water emulsion composition): skin permeability is further improved
